# Laboratory results reported in patent US11220483B2, “Tetrahydro-benzo[d]azepine derivatives as GPR120 modulators” (CALDAN THERAPEUTICS LIMITED, priority 2018, dated 2022).
# Target: T1, human GPR120 (Homo sapiens, UniProt Q5NUL3)
# T1 construct: expressed in transfected cells; host or cells: HEK293T, transient transfection with PEI
# T1 sequence (Q5NUL3 1-361): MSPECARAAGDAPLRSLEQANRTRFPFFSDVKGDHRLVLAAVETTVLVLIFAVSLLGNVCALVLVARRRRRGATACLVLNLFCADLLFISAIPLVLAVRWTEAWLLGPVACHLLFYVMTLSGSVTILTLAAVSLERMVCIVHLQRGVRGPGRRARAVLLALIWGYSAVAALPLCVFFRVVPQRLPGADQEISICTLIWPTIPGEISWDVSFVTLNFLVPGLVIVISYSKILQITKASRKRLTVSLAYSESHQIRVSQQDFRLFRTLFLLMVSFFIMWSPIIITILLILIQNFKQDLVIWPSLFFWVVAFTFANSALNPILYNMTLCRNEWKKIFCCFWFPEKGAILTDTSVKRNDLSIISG
# Assay: Human GPR120-β Arrestin 2 BRET agonist assay
# Format: cell-based
# Details: HEK293T cells transiently co-expressing hGPR120-eYFP and β-arrestin 2-RLuc; BRET normalised to DMSO (0%) and TUG-891 (100%); read-out: hGPR120 pEC50 (converted)
# Method: pEC50 data was obtained by the following procedure:
# Human GPR120-β Arrestin 2 Bio-Luminescence Resonance Energy Transfer (BRET) Agonist Assay Procedure
# HEK293T cells were cultured in growth media composed of DMEM L-glutamine media supplemented with 10% (v:v) fetal bovine serum (FBS) and 1% (v:v) 10,000 units penicillin/10 mgml^−1 streptomycin at 37° C., 5% CO2. HEK293T cells transiently co-expressing human GPR120 […] and b-arrestin 2 were generated by transfection with plasmids encoding a construct of hGPR120 […] fused at its C terminal with enhanced yellow fluorescent protein (eYFP), and another encoding β-arrestin 2 fused to Renilla luciferase (RLuc), using Polyethylenimine (PEI) as the transfection reagent.
# Transfected cells were cryopreserved in batches for consistency between replicate assays. Twenty-four hours post transfection, cells were harvested with non-enzymatic cell dissociation buffer and re-suspended in DMEM medium supplemented with 10% DMSO and 10% FBS before being transferred first to −80° C. overnight and then to liquid nitrogen for long-term storage. On the day prior to the assay, cells were thawed at 37° C. and re-suspended in growth media. A 96 well white opaque bottom microtitre plate was then seeded with 40,000 cells in a volume of 100 μl growth media per well and seeded plates were then incubated overnight at 37° C., 5% CO2. On the day of the BRET experiment, cells were washed twice with BRET assay buffer (Hanks balanced salt solution (HBSS) supplemented with 10 mM HEPES (pH 7.4)), then 80 μl per well of BRET assay buffer was added before the plate was incubated for 30 minutes at 37° C., 5% CO2. Then, Renilla luciferase substrate coelenterazine h (5 μM) was added to the cells and incubated at 37° C. for 10 minutes before the addition of GPR120 agonist (TUG-891) or test compound for a further 5 minutes at 37° C.
# Bio-luminescence at λ 535 nm and λ 475 nm was then measured with a Pherastar FsX instrument, and the λ 535/λ 475 ratio of bio-luminescence was then used to calculate a BRET value. hGPR120 agonist potency values (pEC50) were calculated by normalising the BRET values to the DMSO vehicle (0% control) and TUG-891 (100% control) and then fitting the normalised data to a 3-parameter concentration-response curve.
row,Compound,EC50 [µM]
1,"CC(Cc1ccc2c(c1)CCN(c1cc(OC3CCC3)ccc1F)C2)C(=O)O (racemic) [Compound 27, 3-(2-(5-cyclobutoxy-2-fluorophenyl)-1,2,3,4-tetrahydroisoquinolin-6-yl)-2-methylpropanoic acid]",0.1
2,"O=C(O)C1CC1c1ccc2c(c1)CCN(c1cc(OC3CCC3)ccc1F)C2 (racemic) [Compound 34, 2-(2-(5-cyclobutoxy-2-fluorophenyl)-1,2,3,4-tetrahydroisoquinolin-6-yl)cyclopropanecarboxylic Acid]",0.158
3,"O=C(O)C1CC1c1ccc2c(c1)CCN(c1cc(OC3CCC3)ccc1F)C2 (single isomer, unassigned) [34 isomer 1]",0.158
4,"O=C(O)C1CC1c1ccc2c(c1)CCN(c1cc(OC3CCC3)ccc1F)C2 (single isomer, unassigned) [34 isomer 2]",0.0794
5,"O=C(O)C1CC1c1ccc2c(c1)CCN(c1nc(OC3CCC3)ccc1F)C2 (single isomer, unassigned) [37 Isomer 1]",0.0631
6,"O=C(O)C1CC1c1ccc2c(c1)CCN(c1cccc(Oc3ccccc3)c1)C2 (single isomer, unassigned) [38 isomer 1]",0.0501
7,"O=C(O)C1CC1c1ccc2c(c1)CCN(c1cccc(Oc3ccccc3)c1)C2 (single isomer, unassigned) [38 isomer 2]",0.0398
8,"O=C(O)CCc1ccc2c(c1)CCN(c1cc(OC(F)(F)F)ccc1F)C2 [Compound 1, 3-(2-(2-Fluoro-5-(trifluoromethoxy)phenyl)-1,2,3,4-tetrahydroisoquinolin-6-yl)propanoic Acid]",0.0398
9,"CO[C@H]1C[C@H](Oc2ccc(F)c(N3CCc4cc(CCC(=O)O)ccc4C3)c2)C1 [Compound 2, 3-(2-(2-fluoro-5-((1r,3r)-3-methoxycyclobutoxy)phenyl)-1,2,3,4-tetrahydroisoquinolin-6-yl)propanoic acid]",0.158
10,"O=C(O)CCc1ccc2c(c1)CCN(c1cc(OC3CCC3)cc(F)c1F)C2 [Compound 3, 3-(2-(5-cyclobutoxy-2,3-difluorophenyl)-1,2,3,4-tetrahydroisoquinolin-6-yl)propanoic acid]",0.01
11,"O=C(O)CCc1ccc2c(c1)CCN(c1ccccc1Oc1ccccc1)C2 [Compound 4, 3-(2-(2-phenoxyphenyl)-1,2,3,4-tetrahydroisoquinolin-6-yl)propanoic acid]",0.158
12,"O=C(O)CCc1ccc2c(c1)CCN(c1cccnc1OC1CCC1)C2 [Compound 5, 3-(2-(2-cyclobutoxypyridin-3-yl)-1,2,3,4-tetrahydroisoquinolin-6-yl)propanoic acid]",7.94
13,"N#Cc1ccc(OC(F)(F)F)cc1N1CCc2cc(CCC(=O)O)ccc2C1 [Compound 6, 3-(2-(2-cyano-5-(trifluoromethoxy)phenyl)-1,2,3,4-tetrahydroisoquinolin-6-yl)propanoic acid]",0.0794
14,"O=C(O)CCc1ccc2c(c1)CCN(c1nc(OC3CCC3)ccc1F)C2 [Compound 7, 3-(2-(6-cyclobutoxy-3-fluoropyridin-2-yl)-1,2,3,4-tetrahydroisoquinolin-6-yl)propanoic acid]",0.0158
15,"O=C(O)CCc1ccc2c(c1)CCN(c1ncc(F)c(OC3CCC3)n1)C2 [Compound 8, 3-(2-(4-cyclobutoxy-5-fluoropyrimidin-2-yl)-1,2,3,4-tetrahydroisoquinolin-6-yl)propanoic acid]",0.0631
16,"O=C(O)CCc1ccc2c(c1)CCN(c1cc(Oc3ccccc3)ccc1F)C2 [Compound 9, 3-(2-(2-fluoro-5-phenoxyphenyl)-1,2,3,4-tetrahydroisoquinolin-6-yl)propanoic acid]",0.02
17,"O=C(O)CCc1ccc2c(c1)CCN(c1cccc(OC(F)(F)F)c1)C2 [Compound 10, 3-(2-(3-(Trifluoromethoxy)phenyl)-1,2,3,4-tetrahydroisoquinolin-6-yl)propanoic Acid]",0.158
18,"O=C(O)CCc1ccc2c(c1)CCN(c1cc(OC3CCC3)ccc1Cl)C2 [Compound 11, 3-(2-(2-chloro-5-cyclobutoxyphenyl)-1,2,3,4-tetrahydroisoquinolin-6-yl)propanoic acid]",0.0501
19,"O=C(O)CCc1ccc2c(c1)CCN(c1cccc(OC3CCC3)c1)C2 [Compound 12, 3-(2-(3-cyclobutoxyphenyl)-1,2,3,4-tetrahydroisoquinolin-6-yl)propanoic acid]",0.158
20,"O=C(O)CCc1ccc2c(c1)CCN(c1cc(OC3CCC3)ccc1F)C2 [Compound 13, 3-(2-(5-cyclobutoxy-2-fluorophenyl)-1,2,3,4-tetrahydroisoquinolin-6-yl)propanoic acid]",0.02
21,"Cc1ccc(OC2CCC2)cc1N1CCc2cc(CCC(=O)O)ccc2C1 [Compound 14, 3-(2-(5-cyclobutoxy-2-methylphenyl)-1,2,3,4-tetrahydroisoquinolin-6-yl)propanoic acid]",0.0501
22,"O=C(O)CCc1ccc2c(c1)CCN(c1cc(F)cc(OC3CCC3)c1)C2 [Compound 19, 3-(2-(3-cyclobutoxy-5-fluorophenyl)-1,2,3,4-tetrahydroisoquinolin-6-yl)propanoic acid]",0.0251
23,"O=C(O)CCc1ccc2c(c1)CCN(c1cccc(OC3CCC3)n1)C2 [Compound 21, 3-(2-(6-cyclobutoxypyridin-2-yl)-1,2,3,4-tetrahydroisoquinolin-6-yl)propanoic acid]",0.0398

# Now from value to compound:
row,EC50 [µM],Compound
1,0.631,"CC1(C)Cc2cc(Cl)cc(N3CCc4cc(CCC(=O)O)ccc4C3)c2O1 [Compound 15, 3-(2-(5-chloro-2,2-dimethyl-2,3-dihydrobenzofuran-7-yl)-1,2,3,4-tetrahydroisoquinolin-6-yl)propanoic acid]"
2,0.501,"O=C(O)CCc1ccc2c(c1)CCN(c1cccc(C(F)(F)F)c1)C2 [Compound 16, 3-(2-(3-(trifluoromethyl)phenyl)-1,2,3,4-tetrahydroisoquinolin-6-yl)propanoic acid]"
3,7.94,"N#Cc1ccc(N2CCc3cc(CCC(=O)O)ccc3C2)cc1 [Compound 17, 3-(2-(4-cyanophenyl)-1,2,3,4-tetrahydroisoquinolin-6-yl)propanoic acid]"
4,25.1,"O=C(O)CCc1ccc2c(c1)CCN(c1ccnc(C3CC3)n1)C2 [Compound 18, 3-(2-(2-cyclopropylpyrimidin-4-yl)-1,2,3,4-tetrahydroisoquinolin-6-yl)propanoic acid]"
5,0.0251,"O=C(O)CCc1ccc2c(c1)CCN(c1cccc(Oc3ccccc3)c1)C2 [Compound 20, 3-(2-(3-phenoxyphenyl)-1,2,3,4-tetrahydroisoquinolin-6-yl)propanoic acid]"
6,0.316,"O=C(O)CCc1ccc2c(c1)CCN(c1cccc(OC(F)(F)F)n1)C2 [Compound 22, 3-(2-(6-(trifluoromethoxy)pyridin-2-yl)-1,2,3,4-tetrahydroisoquinolin-6-yl)propanoic acid]"
7,0.398,"O=C(O)CCc1ccc2c(c1)CCN(c1cccc(-c3ccccc3)c1)C2 [Compound 23, 3-(2-([1,1′-biphenyl]-3-yl)-1,2,3,4-tetrahydroisoquinolin-6-yl)propanoic acid]"
8,0.398,"O=C(O)CCc1ccc2c(c1)CCN(c1cc(F)cc(-c3ccccc3)c1)C2 [Compound 24, 3-(2-(5-fluoro-[1,1′-biphenyl]-3-yl)-1,2,3,4-tetrahydroisoquinolin-6-yl)propanoic acid]"
9,0.0631,"COc1cc(OC(F)(F)F)cc(N2CCc3cc(CCC(=O)O)ccc3C2)c1 [Compound 25, 3-(2-(3-methoxy-5-(trifluoromethoxy)phenyl)-1,2,3,4-tetrahydroisoquinolin-6-yl)propanoic acid]"
10,0.0794,"CC(Cc1ccc2c(c1)CCN(c1cc(OC(F)(F)F)ccc1F)C2)C(=O)O (stereo not shown) [Compound 26, 3-(2-(2-Fluoro-5-(trifluoromethoxy)phenyl)-1,2,3,4-tetrahydroisoquinolin-6-yl)-2-methylpropanoic Acid]"
11,0.501,"CC(C)Oc1cccc(N2CCc3cc(CCC(=O)O)ccc3C2)c1 [Compound 28, 3-(2-(3-Isopropoxyphenyl)-1,2,3,4-tetrahydroisoquinolin-6-yl)propanoic Acid]"
